{"source": "patent US10563205B2", "about": "“Nucleic acid aptamer AS1411 modified DNA tetrahedron and preparation method thereof” (Sichuan University, priority 2016, dated 2020)", "test_system": "tumor cells A549", "assay": "MTS proliferation test of tumor cells A549", "format": "cell-based", "settings": "A549, 0-3.2 μM, 1.5 h exposure, then 48 h culture", "method": "Plating the cultured tumor cells A549 in 96-well cell culture plates (100 μL, 5×10^4 cell/well), adding pure Adriamycin or samples with predetermined concentrations (0, 0.1 μM, 0.2 μM, 0.4 μM, 0.8 μM, 1.6 μM, 3.2 μM) into the wells respectively, culturing in a cell incubator for 1.5 h, centrifuging, removing the cell culture medium in the supernatant, adding fresh culture medium to continue culturing for 48 h, then testing the proliferation rate of the cells using a MTS reagent."}
{"compound": "COc1cccc2c1C(=O)c1c(O)c3c(c(O)c1C2=O)C[C@@](O)(C(=O)CO)C[C@@H]3O[C@H]1C[C@H](N)[C@H](O)[C@H](C)O1", "note": "[Adriamycin]", "values": [{"measurement": "inhibitory effect against tumor cells as the concentration increases (proliferation rate, MTS)", "value": "increases gradually"}]}
